Measurements as given in ChEMBL document CHEMBL4007390, “Design, synthesis and biological evaluation of indolin-2-one-based derivatives as potent, selective and efficacious inhibitors of FMS-like tyrosine kinase3 (FLT3)” (Eur J Med Chem, 2017).

Experiments:
[1] = biological target: Vascular endothelial growth factor receptor 1 (Homo sapiens) (UniProt P17948); assay: Inhibition of human VEGFR1 at 0.1 uM relative to control
[2] = biological target: Vascular endothelial growth factor receptor 3 (Homo sapiens) (UniProt P35916); assay: Inhibition of human VEGFR3 at 0.1 uM relative to control
[3] = biological target: T1, Platelet-derived growth factor receptor alpha (Homo sapiens, UniProt P16234); assay: Inhibition of human PDGFRalpha at 0.1 uM relative to control
T1 sequence (P16234 whole entry): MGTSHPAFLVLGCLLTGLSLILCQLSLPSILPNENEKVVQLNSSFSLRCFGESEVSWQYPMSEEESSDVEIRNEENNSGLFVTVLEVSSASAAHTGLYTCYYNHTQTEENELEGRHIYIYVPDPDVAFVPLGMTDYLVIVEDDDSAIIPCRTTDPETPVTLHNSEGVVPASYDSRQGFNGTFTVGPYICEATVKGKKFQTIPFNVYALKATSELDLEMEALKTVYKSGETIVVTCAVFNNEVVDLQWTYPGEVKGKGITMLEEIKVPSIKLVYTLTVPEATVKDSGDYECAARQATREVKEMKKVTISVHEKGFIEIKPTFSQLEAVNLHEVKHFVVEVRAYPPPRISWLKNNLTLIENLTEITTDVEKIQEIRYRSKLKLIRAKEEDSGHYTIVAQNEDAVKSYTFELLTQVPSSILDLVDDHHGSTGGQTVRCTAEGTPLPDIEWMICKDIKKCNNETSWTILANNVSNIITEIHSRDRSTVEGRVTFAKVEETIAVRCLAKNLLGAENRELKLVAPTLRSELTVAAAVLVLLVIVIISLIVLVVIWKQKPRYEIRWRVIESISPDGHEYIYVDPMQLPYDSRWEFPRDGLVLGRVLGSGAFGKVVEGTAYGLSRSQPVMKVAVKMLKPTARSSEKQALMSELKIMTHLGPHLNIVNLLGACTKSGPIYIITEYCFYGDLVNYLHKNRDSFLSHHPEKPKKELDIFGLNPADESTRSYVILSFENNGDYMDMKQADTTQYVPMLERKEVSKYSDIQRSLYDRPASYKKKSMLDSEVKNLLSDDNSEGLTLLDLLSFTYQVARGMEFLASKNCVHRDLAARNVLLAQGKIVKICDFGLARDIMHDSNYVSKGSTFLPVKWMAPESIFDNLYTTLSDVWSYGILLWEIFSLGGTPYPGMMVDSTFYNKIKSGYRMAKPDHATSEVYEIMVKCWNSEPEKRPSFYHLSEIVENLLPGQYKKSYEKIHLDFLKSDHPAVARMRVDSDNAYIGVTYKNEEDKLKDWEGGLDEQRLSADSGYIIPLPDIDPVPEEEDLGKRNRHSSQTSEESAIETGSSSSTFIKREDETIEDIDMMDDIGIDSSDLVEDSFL

[4] = test system: Platelet-derived growth factor receptor alpha (Homo sapiens), P16234 [T674I]; assay: Inhibition of human PDGFRalpha T674I mutant at 0.1 uM relative to control
Platelet-derived growth factor receptor alpha (Homo sapiens), P16234 [T674I], sequence (P16234 whole entry T674I): as the sequence (P16234 whole entry) above, with T674I counted along it

[5] = test system: Platelet-derived growth factor receptor alpha (Homo sapiens), P16234 [V561D]; assay: Inhibition of human PDGFRalpha V561D mutant at 0.1 uM relative to control
Platelet-derived growth factor receptor alpha (Homo sapiens), P16234 [V561D], sequence (P16234 whole entry V561D): as the sequence (P16234 whole entry) above, with V561D counted along it

[6] = biological target: Platelet-derived growth factor receptor beta (Homo sapiens) (UniProt P09619); assay: Inhibition of human PDGFRbeta at 0.1 uM relative to control
Platelet-derived growth factor receptor beta (Homo sapiens), sequence (P09619 whole entry): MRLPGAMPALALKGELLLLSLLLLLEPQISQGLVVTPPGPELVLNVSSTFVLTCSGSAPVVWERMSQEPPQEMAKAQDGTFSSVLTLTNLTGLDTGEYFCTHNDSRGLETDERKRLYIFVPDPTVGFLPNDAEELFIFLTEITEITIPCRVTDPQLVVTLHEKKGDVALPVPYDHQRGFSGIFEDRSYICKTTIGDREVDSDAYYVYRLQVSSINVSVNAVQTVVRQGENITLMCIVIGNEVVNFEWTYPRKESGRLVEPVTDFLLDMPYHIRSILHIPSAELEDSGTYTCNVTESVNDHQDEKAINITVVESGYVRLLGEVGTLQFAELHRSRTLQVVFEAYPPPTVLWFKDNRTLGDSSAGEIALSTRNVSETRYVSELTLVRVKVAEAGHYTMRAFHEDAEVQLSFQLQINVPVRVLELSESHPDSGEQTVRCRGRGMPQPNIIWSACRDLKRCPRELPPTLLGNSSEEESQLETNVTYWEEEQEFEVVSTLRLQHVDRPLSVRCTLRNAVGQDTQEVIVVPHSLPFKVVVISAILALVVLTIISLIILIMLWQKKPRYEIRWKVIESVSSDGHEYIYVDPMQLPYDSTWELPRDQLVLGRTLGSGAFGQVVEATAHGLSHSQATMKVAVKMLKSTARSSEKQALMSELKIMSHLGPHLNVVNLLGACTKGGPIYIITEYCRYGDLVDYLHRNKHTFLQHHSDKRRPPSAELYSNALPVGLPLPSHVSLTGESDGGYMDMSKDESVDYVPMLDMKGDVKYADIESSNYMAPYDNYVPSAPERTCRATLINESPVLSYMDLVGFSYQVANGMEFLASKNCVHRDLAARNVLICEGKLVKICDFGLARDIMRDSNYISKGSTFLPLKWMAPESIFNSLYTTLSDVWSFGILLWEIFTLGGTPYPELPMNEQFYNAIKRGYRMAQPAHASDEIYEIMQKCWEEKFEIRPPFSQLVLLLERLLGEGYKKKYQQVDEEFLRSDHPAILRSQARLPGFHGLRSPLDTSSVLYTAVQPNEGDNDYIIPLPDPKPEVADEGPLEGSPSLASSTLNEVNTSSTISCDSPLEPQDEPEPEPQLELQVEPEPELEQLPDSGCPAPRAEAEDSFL

[7] = biological target: Hepatocyte growth factor receptor (Homo sapiens) (UniProt P08581); assay: Inhibition of human c-MET at 0.1 uM relative to control
[8] = biological target: Serine/threonine-protein kinase B-raf (Homo sapiens) (UniProt P15056); assay: Inhibition of human BRAF at 0.1 uM relative to control
[9] = test system: RAF proto-oncogene serine/threonine-protein kinase (Homo sapiens), P04049 [Y340D,Y341D]; assay: Inhibition of human RAF1 Y340D/Y341D double mutant at 0.1 uM relative to control
[10] = biological target: Serine/threonine-protein kinase PLK1 (Homo sapiens) (UniProt P53350); assay: Inhibition of human PLK1 at 0.1 uM relative to control
Serine/threonine-protein kinase PLK1 (Homo sapiens), sequence (P53350 whole entry): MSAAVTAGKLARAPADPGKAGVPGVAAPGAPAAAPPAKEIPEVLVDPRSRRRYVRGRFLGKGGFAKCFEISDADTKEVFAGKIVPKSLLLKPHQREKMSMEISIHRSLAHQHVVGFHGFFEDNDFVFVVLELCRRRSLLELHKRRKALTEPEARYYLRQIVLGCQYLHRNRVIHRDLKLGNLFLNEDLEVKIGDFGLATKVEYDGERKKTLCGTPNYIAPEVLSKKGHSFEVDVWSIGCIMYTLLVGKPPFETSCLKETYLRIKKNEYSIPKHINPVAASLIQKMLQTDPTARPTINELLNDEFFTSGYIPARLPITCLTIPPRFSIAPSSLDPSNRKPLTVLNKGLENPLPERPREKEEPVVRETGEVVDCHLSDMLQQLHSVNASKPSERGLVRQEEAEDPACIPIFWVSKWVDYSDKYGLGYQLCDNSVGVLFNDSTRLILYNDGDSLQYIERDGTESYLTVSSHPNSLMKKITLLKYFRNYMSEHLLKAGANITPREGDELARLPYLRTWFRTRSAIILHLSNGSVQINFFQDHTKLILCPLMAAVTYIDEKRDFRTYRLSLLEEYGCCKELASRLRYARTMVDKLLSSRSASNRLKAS

[11] = biological target: ALK tyrosine kinase receptor (Homo sapiens) (UniProt Q9UM73); assay: Inhibition of human ALK at 0.1 uM relative to control
[12] = biological target: AMPK alpha2/beta1/gamma1 (Homo sapiens) (UniProt P54646+P54619+Q9Y478); assay: Inhibition of human AMPK alpha2/beta1/gamma1 at 0.1 uM relative to control; type: protein-complex assay
[13] = biological target: AMP-activated protein kinase (AMPK) alpha-1/beta-1/gamma-1 (Homo sapiens) (UniProt P54619+Q9Y478+Q13131); assay: Inhibition of human AMPK alpha1/beta1/gamma1 at 0.1 uM relative to control; type: protein-complex assay
[14] = biological target: Insulin-like growth factor 1 receptor (Homo sapiens) (UniProt P08069); assay: Inhibition of human IGF1R at 0.1 uM relative to control
[15] = biological target: Tyrosine-protein kinase SYK (Homo sapiens) (UniProt P43405); assay: Inhibition of human SYK at 0.1 uM relative to control
[16] = biological target: Tyrosine-protein kinase ZAP-70 (Homo sapiens) (UniProt P43403); assay: Inhibition of human ZAP70 at 0.1 uM relative to control
[17] = biological target: Receptor-type tyrosine-protein kinase FLT3 (Homo sapiens, UniProt P36888, D835Y); assay: Inhibition of human FLT3 D835Y mutant
[18] = biological target: T1, Platelet-derived growth factor receptor alpha; assay: Inhibition of human PDGFRalpha
[19] = biological target: Mast/stem cell growth factor receptor Kit (Homo sapiens, UniProt P10721); assay: Inhibition of human KIT
Mast/stem cell growth factor receptor Kit, sequence (P10721 whole entry): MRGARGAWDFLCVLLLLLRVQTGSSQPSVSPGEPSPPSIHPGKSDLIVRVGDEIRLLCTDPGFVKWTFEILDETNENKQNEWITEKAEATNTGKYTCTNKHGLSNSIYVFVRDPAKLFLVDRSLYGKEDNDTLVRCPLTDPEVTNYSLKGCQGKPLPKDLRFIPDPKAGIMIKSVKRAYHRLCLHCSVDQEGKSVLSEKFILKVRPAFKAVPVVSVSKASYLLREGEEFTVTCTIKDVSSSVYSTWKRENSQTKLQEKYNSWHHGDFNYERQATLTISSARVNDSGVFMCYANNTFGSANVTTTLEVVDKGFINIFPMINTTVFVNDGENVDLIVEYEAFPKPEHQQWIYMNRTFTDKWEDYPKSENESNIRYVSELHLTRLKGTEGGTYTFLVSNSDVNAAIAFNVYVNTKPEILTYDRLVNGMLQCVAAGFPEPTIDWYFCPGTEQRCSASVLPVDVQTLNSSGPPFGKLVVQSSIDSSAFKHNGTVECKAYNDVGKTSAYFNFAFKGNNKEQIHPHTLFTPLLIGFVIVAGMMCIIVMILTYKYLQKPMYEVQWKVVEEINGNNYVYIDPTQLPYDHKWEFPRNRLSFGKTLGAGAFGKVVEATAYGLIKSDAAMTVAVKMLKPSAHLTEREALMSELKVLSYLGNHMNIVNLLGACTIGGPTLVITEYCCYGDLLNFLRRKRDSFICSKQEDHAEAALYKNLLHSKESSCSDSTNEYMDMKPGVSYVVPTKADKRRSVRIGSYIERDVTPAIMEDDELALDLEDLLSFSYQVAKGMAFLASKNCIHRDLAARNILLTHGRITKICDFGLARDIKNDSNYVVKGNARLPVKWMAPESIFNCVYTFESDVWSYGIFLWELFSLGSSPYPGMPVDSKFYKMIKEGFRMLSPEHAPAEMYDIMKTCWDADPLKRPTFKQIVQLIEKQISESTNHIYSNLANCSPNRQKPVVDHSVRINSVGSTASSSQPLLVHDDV

HL-60 = assay: Antiproliferative activity against FLT3 negative human HL60 cells after 72 hrs by MTS assay; type: functional, cell-based; settings: HL-60, 72 h
LC-2-ad = assay: Antiproliferative activity against human LC2/ad cells harboring RET after 72 hrs by MTS assay; type: functional, cell-based
NCI-H2228 = assay: Antiproliferative activity against human NCI-H2228 cells harboring ALK after 72 hrs by MTS assay; type: functional, cell-based; settings: NCI-H2228, 72 h
[20] = Tmax in Balb/c nude mouse at 40 mg/kg, po via gavage by LC-MS/MS analysis; type: ADME, organism-based; settings: in vivo
[21] = Half life in Balb/c nude mouse at 40 mg/kg, po via gavage by LC-MS/MS analysis; type: ADME, organism-based; settings: in vivo
[22] = Cmax in Balb/c nude mouse at 40 mg/kg, po via gavage by LC-MS/MS analysis; type: ADME, organism-based; set-up: dose 40 mg/kg, route oral; settings: in vivo
[23] = AUC (0 to infinity) in Balb/c nude mouse at 40 mg/kg, po via gavage by LC-MS/MS analysis; type: ADME, organism-based; set-up: dose 40 mg/kg, time infinity, route oral; settings: in vivo
MV4-11 [24] = assay: Antitumor activity against human MV4-11 cells xenografted in Harlan nude mouse assessed as tumor growth inhibition at 20 mg/kg, ig bid for 20 days relative to control; type: functional; settings: MV4-11, po, 480 h, read-out: TGI
MV4-11 [25] = assay: Antitumor activity against human MV4-11 cells xenografted in Harlan nude mouse assessed as tumor growth inhibition at 40 mg/kg, ig bid for 20 days relative to control; type: functional; settings: MV4-11, po, 480 h, read-out: TGI
MV4-11 [26] = assay: Antitumor activity against human MV4-11 cells xenografted in Harlan nude mouse assessed as tumor growth inhibition at 80 mg/kg, ig bid for 20 days relative to control; type: functional; settings: MV4-11, po, 480 h, read-out: TGI
Cytochrome P450 3A4 = Cytochrome P450 3A4 (Homo sapiens, UniProt P08684); assay: Inhibition of microsomal CYP3A4 (unknown origin) using testosterone as substrate preincubated for 5 mins followed by NADPH addition by LC-MS/MS analysis; type: ADME
Cytochrome P450 2B6 = Cytochrome P450 2B6 (Homo sapiens, UniProt P20813); assay: Inhibition of microsomal CYP2B6 (unknown origin) using bupropion as substrate preincubated for 5 mins followed by NADPH addition by LC-MS/MS analysis; type: ADME
Cytochrome P450 2B6, sequence (P20813 whole entry): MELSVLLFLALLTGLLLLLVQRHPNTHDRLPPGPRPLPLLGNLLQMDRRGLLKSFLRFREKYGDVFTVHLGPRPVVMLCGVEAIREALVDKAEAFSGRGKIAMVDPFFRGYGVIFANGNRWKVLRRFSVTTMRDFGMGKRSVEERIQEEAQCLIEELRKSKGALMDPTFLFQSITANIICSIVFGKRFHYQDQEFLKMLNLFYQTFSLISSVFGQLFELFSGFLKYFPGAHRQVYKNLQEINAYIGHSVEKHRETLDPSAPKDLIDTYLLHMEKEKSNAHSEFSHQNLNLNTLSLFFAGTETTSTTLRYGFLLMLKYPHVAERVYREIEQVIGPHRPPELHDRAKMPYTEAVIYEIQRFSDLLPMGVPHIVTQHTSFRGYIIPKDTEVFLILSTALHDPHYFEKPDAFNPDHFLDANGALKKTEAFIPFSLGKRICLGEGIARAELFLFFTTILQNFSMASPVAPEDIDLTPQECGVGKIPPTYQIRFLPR

Cytochrome P450 2C8 = Cytochrome P450 2C8 (Homo sapiens, UniProt P10632); assay: Inhibition of microsomal CYP2C8 (unknown origin) using amodiaquine as substrate preincubated for 5 mins followed by NADPH addition by LC-MS/MS analysis; type: ADME
Cytochrome P450 2C8, sequence (P10632 whole entry): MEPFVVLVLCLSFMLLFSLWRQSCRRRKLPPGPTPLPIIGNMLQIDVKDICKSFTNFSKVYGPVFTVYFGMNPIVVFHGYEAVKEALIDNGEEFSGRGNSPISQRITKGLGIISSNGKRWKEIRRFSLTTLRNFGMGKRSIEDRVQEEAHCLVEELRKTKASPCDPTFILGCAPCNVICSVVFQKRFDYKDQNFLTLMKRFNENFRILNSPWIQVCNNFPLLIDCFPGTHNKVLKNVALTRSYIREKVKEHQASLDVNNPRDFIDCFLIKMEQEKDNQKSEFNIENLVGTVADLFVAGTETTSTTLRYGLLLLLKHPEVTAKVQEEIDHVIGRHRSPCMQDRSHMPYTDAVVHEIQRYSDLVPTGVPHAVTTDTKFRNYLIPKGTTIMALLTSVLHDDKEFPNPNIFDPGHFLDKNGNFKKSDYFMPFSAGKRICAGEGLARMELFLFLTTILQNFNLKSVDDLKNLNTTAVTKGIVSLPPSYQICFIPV

Cytochrome P450 2D6 = Cytochrome P450 2D6 (Homo sapiens, UniProt P10635); assay: Inhibition of microsomal CYP2D6 (unknown origin) using dextromethorphan as substrate preincubated for 5 mins followed by NADPH addition by LC-MS/MS analysis; type: ADME
[27] = test system: Receptor-type tyrosine-protein kinase FLT3 (Homo sapiens), P36888 [D835Y]; settings: 0.1 uM

In the case of `Cc1[nH]c(/C=C2\C(=O)Nc3ccc(F)cc32)c(C)c1NC(=O)[C@H]1CCCN1.Cl`, the inhibition [1] is reported as 30%, the inhibition [2] is reported as 47% and the inhibition [3] is reported as 49%. It also gave an inhibition [4] of 98%, an inhibition [5] of 82% and an inhibition [6] of 48%. The inhibition [7] was -8%, the inhibition [8] was 0% and the inhibition [9] was 18%. It also gave an inhibition [10] of -3%, an inhibition [11] of 63% and an inhibition [12] of 58%. The inhibition [13] was 38%, the inhibition [14] was 13% and the inhibition [15] was -3%. For the same compound, the inhibition [16] was 0%, the IC50 [17] was 0.0027 µM and the IC50 [18] was 0.175 µM. It also gave an IC50 [19] of 0.227 µM, an IC50 (HL-60) of 6.47 µM and an IC50 (LC-2-ad) of 0.621 µM. It also gave an IC50 (NCI-H2228) of 3.44 µM, a Tmax [20] of 2 h and a half-life [21] of 1.6 h. It also gave a Cmax [22] of 709 ng/mL, an AUC(0-inf) [23] of 3070 ng·h/mL and an inhibition in vivo at 20 mg/kg (MV4-11 [24]) of 99.8%. The inhibition in vivo at 40 mg/kg (MV4-11 [25]) was 100%, the inhibition in vivo at 80 mg/kg (MV4-11 [26]) was 98.9% and the IC50 (Cytochrome P450 3A4) was > 33 µM. For the same compound, the IC50 (Cytochrome P450 2B6) was > 33 µM, the IC50 (Cytochrome P450 2C8) was > 33 µM and the IC50 (Cytochrome P450 2D6) was > 33 µM. For the same compound, the inhibition [27] was 93%.
